Measured values published in patent publication US6576592B1, “Herbicide composition” (Sumitomo Chemical Company, Limited, priority 1999, dated 2003).
Structures can show the parent of a compound that is named as a salt.

Columns and labels:
[1] = system: yellow nutsedge; assay: Test Example 1: foliar treatment of pot-grown yellow nutsedge in greenhouse, herbicidal activity; assay type: in vivo, yellow nutsedge (Cyperus esculentus); conditions: sprayed over plants grown 26 days, examined 10 days after application, index 0 to 10
Source text: The values, “7”, “8”, “9”, and “10” of the herbicidal effect mean a excellent herbicidal effect.
(§1) Plastic pots each having a diameter of 11 cm and a depth of 8 cm were filled with upland soil, and then buried tubers of yellow nutsedge. And test plants were given 26 days to grow in greenhouse.An emulsifiable concentrate of compound A which had been obtained by well mixing 5 parts of compound A, 6 parts of Sorpol 3005X (produced by Toho Chemical Industry, Co., Ltd.) and 89 parts of xylene, a formulated glyphosate product (trade name: Roundup; seller, Monsanto Japan Limited), and a mixture of the emulsifiable concentrate of compound A and the formulated glyphosate product were independently diluted in their prescribed amounts with water. Each dilution was uniformly sprayed over the plants with a small sprayer, and then corn was further seeded. After the application the test plants were grown in the greenhouse for further 10 days and then, herbicidal activity and phytotoxicity to corn were examined.

[2] = system: corn; assay: Test Example 1: phytotoxicity to corn seeded after application; assay type: in vivo; set-up: key: “no harm” means that the phytotoxicity was unrecognizable or almost unrecognized; “small” means that a slight degree of phytotoxicity was recognized; “medium” means that a medium degree of phytotoxicity was recognized; “large” means that a large degree of phytotoxicity was recognized; conditions: corn seeded after spraying, examined after 10 days
Protocol: The phytotoxicity is evaluated like these, “no harm” means that the phytotoxicity was unrecognizable or almost unrecognized, “small” means that a slight degree of phytotoxicity was recognized, “medium” means that a medium degree of phytotoxicity was recognized, and “large” means that a large degree of phytotoxicity was recognized.
as §1

SMILES | Herbicidal activity Yellow nutsedge ([1]; dosage 560 g/ha) | Phytotoxicity Corn ([2]; dosage 560 g/ha) | Herbicidal activity Yellow nutsedge ([1]; dosage 120 g/ha) | Phytotoxicity Corn ([2]; dosage 120 g/ha)
O=C(O)CNCP(=O)(O)O [Glyphosate isopropylamine salt, N-(phosphonomethyl)glycine] | 1 | no harm | – | –
COC(=O)C(C)Oc1cc(-n2c(=O)cc(C(F)(F)F)n(C)c2=O)c(F)cc1Cl (stereo not shown) [Compound A, methyl 2-[2-chloro-4-fluoro-5-{3-methyl-2,6-dioxo-4-(trifluoromethyl)-1,2,3,6-tetrahydropyrimidin-1-yl}phenoxy]propionate] | – | – | 4 | no harm
